# Assays:
# bone = assay: Bone scintigraphy, pyrophosphate compared to polyphosphate; format: in vivo; conditions: as compared to polyphosphates, in words
# Procedure: The animal was anesthetized with ethylcarbamate after injection and immediately before scintigraphy was carried out. Scintigraphy was carried out after 5 minutes, 1 hour, 2 hours and 4 hours following injection. Two recording methods were applied:
# a. conventional scanning,
# b. scanning, followed by information treatment for calculating surface activities.
# pyrophosphatases = conditions: cited from earlier work
structure (smiles),measurement,setting,value
O=P(O)(O)OP(=O)(O)O [pyrophosphate],time-period before bone scintigraphy (required by elimination from organs),bone,shorter than in the case of polyphosphates
same,hydrolysis by pyrophosphatases,pyrophosphatases,rapid hydrolysis

# — patent US3931396A, “Method of preparation of a composition having a base of 99^m technetium for diagnosis by scintigraphy” (priority 1974, dated 1976)
